# From patent US12220393B2, “Compositions and methods for the treatment of zika viral diseases” (The ProImmune Company LLC, priority 2017, dated 2025)
# Assays:
# [1] = test system: total intracellular glutathione (GSH+GSSG); experiment: Total intracellular glutathione in uninfected Vero cells; format: cell-based, African green monkey (Chlorocebus sp.); conditions: BSO treatment, initial studies
# Description: African green monkey (Chlorocebus sp.) Vero cells, grown to approximately 90-95% confluence (mid-log phase), were treated with and grown in the presence of increasing concentrations of FFAAP for three days. At each time point, medium was discarded and cells were harvested to measure intracellular concentrations of total GSH. All experiments shown were done in triplicate and the data shown are representative data from multiple independent experiments performed. Standard error bars were calculated using MICROSOFT EXCEL and significance assessments were performed using GRAPHPAD PRISM. * indicates a p-value <0.05 and >0.01; ** indicates a p-value <0.01 and >0.001; and *** indicates a p-value <0.001.
# Uninfected Vero cells were treated with 0, 2, 4, 6 mM concentrations of free-form amino acid precursors (FFAAP) for 72 hours. Vero cells infected with Zika virus were treated with the above concentration immediately for quantification of virus titers. […]
# (§1) Glutathione Precursors and Glutathione Assays. […] Effective blockade was assessed by measurements of intracellular reduced and oxidized glutathione in the presence of inhibitor.
# To determine the levels of intracellular glutathione in uninfected cells, FFAAP-treated and untreated cells, we quantified GSH/GSSG levels in each cell line over three days. Growth and viability of the cells were also assessed. […]
# [2] = test system: total intracellular glutathione; experiment: Total intracellular glutathione in Zika virus infected Vero cells; format: cell-based, African green monkey (Chlorocebus sp.); conditions: by 48 hours post BSO-treatment
# Description: (§2) FIGS. 4A and 4B show effect of FFAAP on total intracellular GSH and Zika virus replication in Zika virus infected Vero cells (ZIKV). Vero cells, grown to approximately 90-95% confluence (mid-log phase), were treated with and grown in the presence of increasing concentrations of FFAAP for 3 days. At each time point, medium was discarded and cells were harvested to measure intracellular concentrations of total GSH. […] All experiments shown were performed in triplicates and the data shown are representative data from multiple independent experiments. Standard error bars were calculated using Microsoft Excel and significance assessments were performed using GRAPHPAD PRISM. * indicates a p-value <0.05 and >0.01; ** indicates a p-value <0.01 and >0.001; and *** indicates a p-value <0.001.
# (§3) FIG. 5A-5D show effects of inhibition of glutathione biosynthesis on Zika virus replication in Vero cells. […] Standard error bars were calculated using Microsoft Excel and significance assessments were performed using GRAPHPAD PRISM. * indicates a p-value <0.05 and >0.01; ** indicates a p-value <0.01 and >0.001; and *** indicates a p-value <0.001.
# as §1
# [3] = test system: Zika virus; experiment: Quantification of Zika virus titers in infected Vero cells; format: cell-based; conditions: BSO 200 μM, MOI 0.1
# Description: as §2, §3
# FFAAP treatment of cells. […] Cells infected with Zika virus were treated with the above concentration 1.5 hours post adsorption for quantification of virus titers. […]
# [4] = test system: Zika virus; experiment: Quantification of Zika virus titers in infected JEG-3 cells; format: cell-based; conditions: BSO 200 μM
# Description: (§4) FIGS. 6A-6D show effects of inhibition of glutathione biosynthesis on Zika virus replication in JEG-3 cells. […] All experiments were performed in triplicates and the data shown are representative data from multiple independent experiments. Standard error bars were calculated using Microsoft Excel and significance assessments were performed using GRAPHPAD PRISM. * indicates a p-value <0.05 and >0.01; ** indicates a p-value <0.01 and >0.001; and *** indicates a p-value <0.001.
# FFAAP treatment of cells. […] Cells infected with Zika virus were treated with the above concentration 1.5 hours post adsorption for quantification of virus titers. For plaque enumeration assay cells were treated with FFAAP at the time of adsorption and the treatment was continued for 3 days in semi-solid medium. For these assays the final concentrations in the cell culture medium of the infected and uninfected cells were 0, 2.5, 5.0, and 10 mM FFAAP from solubilized stock solution prepared for FFAAP. Inhibitory concentration (IC50) was used as per definitions provided by GRAPHPAD Software) to evaluate dose-response curves.
# Approximately 95% sub-confluent Vero cells or JEG-3 cells were infected Zika in a 48-well plate. After 1.5 hours post-adsorption (HPA), virus inoculum was removed and media with or without FFAAP was added to the respective wells. […]
# [5] = test system: intracellular glutathione; experiment: Intracellular glutathione in JEG-3 cells; format: cell-based, human
# Description: as §4
# FIGS. 7A-F show total intracellular GSH concentrations in various cells that were treated with BSO, FFAAP, and a combination of BSO and FFAAP at day 0 and day 2. FIGS. 7A-7C show intracellular GSH concentration in African green monkey (Chlorocebus sp.) Vero cells. […]
# Glutathione Precursors and Glutathione Assays. […] Intracellular glutathione levels (GSSG/GSH) were measured to quantify the levels of newly biosynthesized intracellular glutathione with molar quantities calculated using standard curves prepared with reduced and oxidized glutathione (Enzo Life Sciences, Farmingdale, NY), Standard error of the mean (SEM) was calculated using values from triplicate samples and coefficient of variance was calculated within each sample for each specific treatment group. […] Effective blockade was assessed by measurements of intracellular reduced and oxidized glutathione in the presence of inhibitor.
structure (smiles),measurement,setting,value
"CCCCS(=N)(=O)CC[C@H](N)C(=O)O (stereo partly drawn) [BSO, buthionine-(S,R)-sulfoximine]",intracellular glutathione levels,[1],undetectable levels
same,intracellular levels of glutathione,[2],undetectable
same,Zika virus replication in Vero cells treated with BSO,[3],Zika virus replicates even in Vero cells treated with BSO
same,Zika virus replication on blockage of glutathione biosynthesis,[4],inhibition of Zika virus replication
same,intracellular glutathione levels,"[5]; JEG-3 cells, BSO treatment, initial studies",undetectable levels
same,intracellular GSH synthesis,[5]; Zika virus infected JEG-3 cells,blocked intracellular GSH synthesis
